Columns and labels:
[1] = Mouse PK of G7883, IP in MCT vehicle; type: in vivo, female NSG mice; conditions: for AUC(0-t) / Cmax / Tmax / half-life: female, NSG, plasma; for half-life: ip
Experimental: A total of 0.6% w/v Methylcellulose, 0.2% w/v Tween 80 in water (MCT) was prepared by slowly adding Methylcellulose (Methylocel A15 LV; CAS 9004-67-5, Part ID: 64605-500G-F 27.5-31.5% Methoxyl basis, Sigma-Aldrich, St. Louis, MO, USA) in small portions to prevent clumping while stirring into water at 70–80 °C. Once a homogeneous suspension formed, Tween 80 (Polysorbate 80; CAS#9005-65-6 (Polyoxyethylene (20) Sorbitan Monooleate; Tween 80) Part ID: PO138, Spectrum Chemical, New Brunswick, NJ, USA) was added and stirred until fully dissolved. Vehicle was filtered through 0.22 µm PES (Corning REF no. 431098) prior to adding to the compound for dosing. Respective compound was added based on the target concentration to the MCT vehicle and stirred at 35 °C until the power was well-dispersed. Formulations were homogenized through a polytron homogenizer and then sonicated in a water bath sonicator until a homogeneous suspension was achieved.
G7883 was dosed in three female NSG mice in-house with body weight ranging from 20 to 25 g. Three mice were given an IP dose of G7883 formulated in the MCT vehicle at 50 mpk and 150 mpk with a 5 mL/kg dosing volume. A total of 10 µL of blood was collected serially at 0.25, 0.5, 1, 3, 7, and 24 h post-dose and diluted in 40 µL of the potassium K2EDTA water. The frozen blood samples were stored at −70 °C or lower until analysis.
All plasma and cell media concentrations of G7883 and G6893 were determined using liquid chromatography–tandem mass spectrometry after protein precipitation with acetonitrile and injection of the supernatant onto the column (Waters ACQUITY UPLC BEH C18 1.7 μm, 2.1 × 50 mm for G7883 and G6893). The aqueous mobile phase was 0.1% formic acid, 2 mM ammonium formate in water/acetonitrile (v:v, 95:5), and the organic mobile phase was 0.1% formic acid, 2 mM ammonium formate in acetonitrile/water (v:v, 95:5). An AB Sciex API 4000 Triple Quad instrument was used for detecting G7883 and G6893 (Figure S2). The electrospray ionization source in both columns was operated in the positive ion and multiple reaction monitoring (MRM) detection modes. The MRM transitions for G7883 and G6893 were m/z 462.2 (Q1) and 253.10 (Q3) and m/z 454.2 (Q1) and 325.9 (Q3), respectively. The dynamic range of both assays was 0.50–50.0 ng/mL, and the total run time was 1.6 min. The lower limit of quantitation of the assay was […], and the dilution quality control concentration was set at 10 ng/mL with acceptance criteria for accuracy and precision of 25%.
All plasma and cell media concentrations of G7883 were determined using liquid chromatography–tandem mass spectrometry after protein precipitation with acetonitrile and injection of the supernatant onto the column (Phenomenex Kinetex XB-C18, 30 × 2.1 mm, 2.6 µm). The aqueous mobile phase was 10 mM of ammonium formate in water, and the organic mobile phase was 0.1% formic acid in acetonitrile. An AB Sciex API 5500 Triple Quad instrument was used for detecting G7883. The electrospray ionization source in both columns was operated in the positive ion and MRM detection modes. The MRM transitions for G7883 were m/z 462.2 (Q1) and 253.10 (Q3), respectively. The dynamic range of the assay was 0.50–50.0 ng/mL, and the total run time was 2 min. The lower limit of quantitation of the assay was […], and the dilution quality control concentration was set at 10 ng/mL with acceptance criteria for accuracy and precision of 25%.

[2] = Mouse IV infusion of G7883 by iPRECIO pump; type: in vivo, female C57BL-6 mice
Text: This is often a concern for molecules in early drug discovery stages. Various formulation and delivery strategies have been devised to modify the systemic PK profiles of drug molecules, encompassing nanoparticles, microparticles, lipid and polymer conjugation, implanted infusion pump device technologies, and subcutaneous depots. Here, we examined two strategies aimed at maintaining the drug concentration at a designed target concentration for the maximum duration potentially needed for proof of concept studies. The initial approach involved using an implantable device, the iPRECIO pump that allows for a controlled and sustained infusion, as opposed to a typical bolus IV injection. The infusion pump strategies can be a promising tool to achieve the desired delivery profile of a compound, given the solubility requirements based on the intended target release and PK profile. […]
All plasma and cell media concentrations of G7883 and G6893 were determined using liquid chromatography–tandem mass spectrometry after protein precipitation with acetonitrile and injection of the supernatant onto the column (Waters ACQUITY UPLC BEH C18 1.7 μm, 2.1 × 50 mm for G7883 and G6893). […] The lower limit of quantitation of the assay was 5.1 ng/mL, and the dilution quality control concentration was set at 10 ng/mL with acceptance criteria for accuracy and precision of 25%.

[3] = 50 mg/kg, IP 50 mpk, MCT vehicle, mean
[4] = 150 mg/kg, IP 150 mpk, MCT vehicle, mean

increase of AUC coverage, IP versus PO ([1]; IP 150 mpk compared with PO 250 mpk): approximately 10 fold
t1/2 ([1]; IP 150 mpk, MCT vehicle, mean, 150 mg/kg): 1.53 h
AUC(0-t) [1, 3]: 31.2 µM·h
Cmax [1, 3]: 23.9 µM
Tmax [1, 3]: 1 h
AUC(0-t) [1, 4]: 217 µM·h
Cmax [1, 4]: 69.2 µM
Tmax [1, 4]: 1 h
half-life [1, 3]: 0.895 h
half-life [1, 4]: 1.5 h
SMILES: Cc1nccnc1-c1nn2c(=O)cc(-c3ccc(C4CCCCC4)cc3)[nH]c2c1C(=O)N1CC(CF)C1 [G7883, 5-(4-cyclohexylphenyl)-3-[3-(fluoromethyl)azetidine-1-carbonyl]-2-(3-methylpyrazin-2-yl)-4H-pyrazolo[1,5-a]pyrimidin-7-one]
plasma concentration relative to target IC50 ([2]; 3.3 mg/mL in 20% DMSO, 80% PEG400, 1.54 mg/h.kg, over 176 h, mouse): plasma concentrations remained below the target IC50
body weight over time ([2]; 20% DMSO, 80% PEG400, mouse): prevention of body weight loss over time
